From patent publication US20230136600A1, “Method and device for screening antigen epitope polypeptide” (priority 2020, published 2023)

Columns and labels:
Balb/c mice = test: Polypeptide chip-based vaccine immunogenicity scoring system; type: in vivo; design: key to A2: whether the 95 percentile of the last sampling is increased compared with the end point: Y = rise; N = no rise
[1] = tested on: novel coronavirus (live coronavirus), vero cells; test: In-vitro live virus neutralization experiment with serum of immunized mice (CPE method); type: in vivo, SARS-CoV-2; details: Embodiment I: single peptide 100 μg + MF59 at Day 0, 14, 28, Balb/c mice, serum Day 35
[2] = Embodiment III, polypeptide-KLH
[3] = Embodiment III, polypeptide-KLH, Mix1-10
[4] = Embodiment III, polypeptide-KLH, total score = 5
[5] = Embodiment III, polypeptide-KLH, value of the whole mix
[6] = adjuvant AddaVax, 7 peptides co-immunized in mice
[7] = adjuvant Adju-Phos, 7 peptides co-immunized in mice
[8] = adjuvant Alhydrogel, 7 peptides co-immunized in mice
[9] = adjuvant Imjet Alumn, 7 peptides co-immunized in mice
[10] = adjuvant MA103A, 7 peptides co-immunized in mice
[11] = adjuvant MA103B, 7 peptides co-immunized in mice

YGANKDGI (SARS-CoV-2) [SEQ ID NO:21]
B1: D 0-D 14 95 percentile rise in the number of mice (Balb/c mice; [2]): 3
B2: D 0-D 21 95 percentile rise in the number of mice (Balb/c mice; [2]): 3
B3: D 14-D 21 95 percentile rise in the number of mice (Balb/c mice; [2]): 1
B4: D 21-D 28 95 percentile rise in the number of mice (Balb/c mice; [2]): 1
A1: difference between a highest median and a D 0 median (95 percentile) (Balb/c mice; [3]): 0.08
A2: whether the 95 percentile of the last sampling is increased compared with the end point (Balb/c mice; [3]): Y
Total single peptide (Balb/c mice; Embodiment III, polypeptide-KLH, A*3 + B*2 + C*1): 14.8
A: 95 percentile grouping number score (Balb/c mice; [4]): 3.5
B: Mouse performance score (Balb/c mice; [4]): 1.9
C1: #A timing-sequence response peptide fragment set (Balb/c mice; [5]): 230
C2: #B vaccine specificity peptide fragment set (Balb/c mice; [5]): 251
C3: Intersection of A and B (Balb/c mice; [5]): 1
C4: Percentage of the intersection in set B (Balb/c mice; [5]): 0.398
C: Timing-sequence response and specificity score (Balb/c mice; [5]): 0.5
1) 95 percentile grouping number A (Balb/c mice; [6]): 3.5
1) 95 percentile grouping number A1 (Balb/c mice; [6]): 0.055
2) Mouse performance B (Balb/c mice; [6]): 2.6
2) Mouse performance B1 (Balb/c mice; [6]): 0
2) Mouse performance B2 (Balb/c mice; [6]): 3
2) Mouse performance B3 (Balb/c mice; [6]): 5
3) Timing-sequence response and specificity C (Balb/c mice; [6]): 0
3) Timing-sequence response and specificity C1 (Balb/c mice; [6]): 237
3) Timing-sequence response and specificity C2 (Balb/c mice; [6]): 1244
3) Timing-sequence response and specificity C3 (Balb/c mice; [6]): 0
3) Timing-sequence response and specificity C4 (Balb/c mice; [6]): 0.000
Total single peptide (Balb/c mice; [6]): 15.7
1) 95 percentile grouping number A (Balb/c mice; [7]): 4
1) 95 percentile grouping number A1 (Balb/c mice; [7]): 0.05
2) Mouse performance B (Balb/c mice; [7]): 2.9
2) Mouse performance B1 (Balb/c mice; [7]): 3
2) Mouse performance B2 (Balb/c mice; [7]): 4
2) Mouse performance B3 (Balb/c mice; [7]): 3
3) Timing-sequence response and specificity C (Balb/c mice; [7]): 0
3) Timing-sequence response and specificity C1 (Balb/c mice; [7]): 203
3) Timing-sequence response and specificity C2 (Balb/c mice; [7]): 1244
3) Timing-sequence response and specificity C3 (Balb/c mice; [7]): 0
3) Timing-sequence response and specificity C4 (Balb/c mice; [7]): 0.000
Total single peptide (Balb/c mice; [7]): 17.8
1) 95 percentile grouping number A (Balb/c mice; [8]): 1.5
1) 95 percentile grouping number A1 (Balb/c mice; [8]): 0.025
2) Mouse performance B (Balb/c mice; [8]): 2.4
2) Mouse performance B1 (Balb/c mice; [8]): 4
2) Mouse performance B2 (Balb/c mice; [8]): 2
2) Mouse performance B3 (Balb/c mice; [8]): 2
3) Timing-sequence response and specificity C (Balb/c mice; [8]): 1
3) Timing-sequence response and specificity C1 (Balb/c mice; [8]): 123
3) Timing-sequence response and specificity C2 (Balb/c mice; [8]): 1244
3) Timing-sequence response and specificity C3 (Balb/c mice; [8]): 2
3) Timing-sequence response and specificity C4 (Balb/c mice; [8]): 0.161
Total single peptide (Balb/c mice; [8]): 9.8
1) 95 percentile grouping number A (Balb/c mice; [9]): 2
1) 95 percentile grouping number A1 (Balb/c mice; [9]): 0.025
2) Mouse performance B (Balb/c mice; [9]): 2.4
2) Mouse performance B1 (Balb/c mice; [9]): 0
2) Mouse performance B2 (Balb/c mice; [9]): 4
2) Mouse performance B3 (Balb/c mice; [9]): 4
3) Timing-sequence response and specificity C (Balb/c mice; [9]): 1
3) Timing-sequence response and specificity C1 (Balb/c mice; [9]): 100
3) Timing-sequence response and specificity C2 (Balb/c mice; [9]): 1244
3) Timing-sequence response and specificity C3 (Balb/c mice; [9]): 3
3) Timing-sequence response and specificity C4 (Balb/c mice; [9]): 0.241
Total single peptide (Balb/c mice; [9]): 11.3
1) 95 percentile grouping number A (Balb/c mice; [10]): 3
1) 95 percentile grouping number A1 (Balb/c mice; [10]): 0.042
2) Mouse performance B (Balb/c mice; [10]): 2.6
2) Mouse performance B1 (Balb/c mice; [10]): 4
2) Mouse performance B2 (Balb/c mice; [10]): 3
2) Mouse performance B3 (Balb/c mice; [10]): 2
3) Timing-sequence response and specificity C (Balb/c mice; [10]): 1
3) Timing-sequence response and specificity C1 (Balb/c mice; [10]): 260
3) Timing-sequence response and specificity C2 (Balb/c mice; [10]): 1244
3) Timing-sequence response and specificity C3 (Balb/c mice; [10]): 3
3) Timing-sequence response and specificity C4 (Balb/c mice; [10]): 0.241
Total single peptide (Balb/c mice; [10]): 14.7
1) 95 percentile grouping number A (Balb/c mice; [11]): 2.5
1) 95 percentile grouping number A1 (Balb/c mice; [11]): 0.035
2) Mouse performance B (Balb/c mice; [11]): 2
2) Mouse performance B1 (Balb/c mice; [11]): 4
2) Mouse performance B2 (Balb/c mice; [11]): 2
2) Mouse performance B3 (Balb/c mice; [11]): 1
3) Timing-sequence response and specificity C (Balb/c mice; [11]): 0
3) Timing-sequence response and specificity C1 (Balb/c mice; [11]): 153
3) Timing-sequence response and specificity C2 (Balb/c mice; [11]): 1244
3) Timing-sequence response and specificity C3 (Balb/c mice; [11]): 0
3) Timing-sequence response and specificity C4 (Balb/c mice; [11]): 0.000
Total single peptide (Balb/c mice; [11]): 11.5
Neutralizing antibody positive rate (%) [1]: 40%
